# How the values were obtained:
# [1] = Tasting of snack product (fried potato base, 35% fat, cheese seasoning) with added compound
# Text: A snack product consisting of a fried potato base, containing 35% fat and flavored with cheese seasoning containing salt, MSG, dairy, organic acids, sugars, and a flavour formulation.
# [2] = Tasting of air expanded base (3% fat, cheese seasoning) with added compound
# Text: An air expanded base (Rice, wheat, Tapioca, potato, salt, sugar, modified starch), containing 3% fat and flavored with cheese seasoning containing salt, MSG, dairy, organic acids, sugars and flavor.
# [3] = Test on orange flavoured Tang powdered soft drink, evaluated by expert tasters
# Procedure: In an orange flavoured Tang powdered soft drink (market product) sweetened with sucrose plus high intensity sweetener and containing citric acid, C18:2-gaba and C18:2-pro were tested.
# All samples were evaluated by expert tasters. Tasters were asked to describe the samples focusing on authentic taste, mouthfeel & body, enhancement, richness, juiciness, long lastingness, salivation, sweetness, masking off notes of high intensity sweetener
# Base is Orange Flavoured Tang
# Base: sweet, orange, licorice, and lingering high intensity sweetener offnotes, bitter, thin
# [4] = Mango flavoured still beverage containing different levels of juice, evaluated by expert tasters
# Procedure: In a Mango flavoured still beverage, sweetened with 8% sucrose and containing 0.1% citric acid and 1%, 4% and 6% clear mango juice flavoured with a proprietary Mango flavour @ 0.05% , C18:2-gaba and C18:2-Pro were added, as such (separate) and in combination.
# All samples were evaluated by expert tasters. Tasters were asked to describe the samples focusing on authentic taste, juicy mouthfeel, enhancement, richness, juiciness, long lastingness, salivation, sweetness.
# In a Mango flavoured still beverage, sweetened with 8% sucrose & containing 0.1% citric acid and 1% clear mango juice flavoured with proprietary Mango flavour @ 0.05%, C18:2-gaba and C18:2-Pro were added, as such (separate) and in combination.
# Base is water, 8% sucrose, 0.1% citric acid, 1% clear mango juice (very low juice %), flavoured with Mango flavor, dosed at 0.05%
# Base: sweet, fruity, mango, thin
# In a Mango flavoured still beverage, sweetened with 8% sucrose & containing 0.1% citric acid and 4% clear mango juice flavoured with Mango flavour @ 0.05% , C18:2-gaba and C18:2-Pro were added, as such (separate) and in combination.
# Base is water, 8% sucrose, 0.1% citric acid, 4% clear mango juice (30% reduced juice), flavoured with Mango flavor, dosed at 0.05%
# Base: sweet, fruity, mango, some low mouthfeel
# In a Mango-flavoured still beverage, sweetened with 8% sucrose & containing 0.1% citric acid and 6% clear mango juice flavoured with Mango flavour @ 0.05%, C18:2-gaba and C18:2-Pro were added, as such (separate) and in combination.
# Base is water, 8% sucrose, 0.1% citric acid, 6% clear mango juice (full juice), flavoured with Mango flavor, dosed at 0.05%.
# Base: Sweet, fruity mango, full mouthfeel
# [5] = Test in 3 in 1 Coffee beverage, evaluated by expert tasters; details: sucrose 13.2%, creamer 2.1% fat, compound at 1 ppm, base: coffee, sweet, mild dairy
# Procedure: In a 3 in 1 Coffee beverage from Nestle (market product) sweetened with sucrose 13.2% and containing creamer (2.1% fat) C18:2-gaba was added.
# Samples were evaluated by expert tasters. Tasters were asked to describe the samples focusing on authentic taste, mouthfeel, fullness, salivation, sweetness, juiciness, richness, long lastingness and fattiness.
# Base is 3-in-1 Coffee Beverage (Market Product) Sweetened with Sucrose and Containing Creamer with Fat
# Base: coffee, sweet, mild dairy
structure (smiles),measurement,setting,value
CCCCCCCC/C=C\CCCCCCCC(=O)N[C@@H](CCSC)C(=O)O [C18:1 met],tasting results,[1]; compound at 0.25 ppm,"Salty, aged cheese, succulent"
same,tasting results,[1]; compound at 0.5 ppm,"Increased cheese, creamy, salty and succulent"
"CCCCCCCC/C=C\CCCCCCCC(=O)NC1(C(=O)O)CC1 [C18:1-ACCA, N-oleoyl 1-amino-cyclopropyl carboxylic acid]",tasting results,[2]; compound at 0.5 ppm,Increased salty
same,tasting results,[2]; compound at 1 ppm,"Increased Umami, salty"
same,tasting results,[1]; compound at 0.5 ppm,Increased salty
same,tasting results,[1]; compound at 1 ppm,"Increased Umami, salty"
CCCCC/C=C\C/C=C\CCCCCCCC(=O)N1CCC[C@H]1C(=O)O [C18:2-Pro],masking off notes of high intensity sweetener,[3]; compound at 1 ppm,the off-notes of the high intensity sweetener were suppressed
same,taste description by expert tasters,[3]; compound at 1 ppm,"very fresh, enhances sweet juicy orange notes, characteristic of authentic fresh orange fruit"
same,taste description by expert tasters,"[4]; 1% clear mango juice, compound at 0.5 ppm","more sweet, sugar-like, very juicy and long lasting sweet, salivating"
same,taste description by expert tasters,"[4]; 4% clear mango juice, compound at 0.5 ppm","more sweet, sugar-like, very juicy and long lasting sweet, salivating"
same,taste description by expert tasters,"[4]; 6% clear mango juice (full juice), compound at 0.5 ppm","more sweet, sugar-like, very juicy and long lasting sweet, salivating, syrupy"
CCCCC/C=C\C/C=C\CCCCCCCC(=O)NCCCC(=O)O [C18:2-gaba],masking off notes of high intensity sweetener,[3]; compound at 0.5 ppm,the off-notes of the high intensity sweetener were suppressed
same,taste description by expert tasters,[3]; compound at 0.5 ppm,"enhances sweet juicy orange notes, enhanced mouthfeel"
same,tasting results,[2]; compound at 0.5 ppm,"Increased dairy, cheese"
same,tasting results,[2]; compound at 1 ppm,"Fatty full, cheesy, cheese crust, long lasting, cover base"
same,tasting results,[1]; compound at 0.5 ppm,"increased dairy, cheesy"
same,tasting results,[1]; compound at 1 ppm,"Fatty full, cheesy, cheese crust, long lasting"
same,taste description by expert tasters,"[4]; 1% clear mango juice, compound at 1 ppm","fatty skin-like, very juicy, authentic mango, much more mouthfeel, long lasting mango taste, mouthfeel is close to the full juice product"
same,taste description by expert tasters,"[4]; 4% clear mango juice, compound at 1 ppm","fatty skin-like, very juicy, authentic mango, long lasting mango taste, more mouthfeel than the full juice product"
same,taste description by expert tasters,"[4]; 6% clear mango juice (full juice), compound at 1 ppm","fatty skin-like, very thick juicy, authentic mango, long lasting mango taste, rich"
same,taste description by expert tasters,[5],"very nice mouthfeel effect, creamy as if coffee creamer is added, more sweet"

# Source: US10582715B2, “Powder flavour composition” (Givaudan S.A., priority 2012, dated 2020)
